We go through one compound from US20180193336A1, “SPRAY DRY FORMULATIONS” (Pulmokine, Inc., priority 2013, published 2018).

One series deals with PDGFRbeta (Homo sapiens, UniProt P09619). Conditions: FIG. 25. Here is the method: A Z-lyte kinase assay was performed to determine the inhibition of PDGFRalpha and PDGFRbeta mediated phosphorylation by PK10453 (Structure 2). Ten point titration curves were modeled to calculate the IC50 (Invitrogen Select Screen®).
Series [1] can be described thus: Pharmacokinetic study, inhaled vs intravenous, lung and plasma levels. Format: in vivo, rat. The following applies: [(AUClung/AUCplasma)respiratory]/[(AUClung/AUCplasma)IV]. On the procedure: PK10453 (Structure 2) was administered intravenously or by inhalation to animals, which were then euthanized at time 0, 10, 20, and 60 min (n=3 each time point). Blood samples were taken by cardiac puncture, and the lungs excised. The lungs were homogenized and PK10453 (Structure 2) extracted with a 1:3 mixture of acetonitrile:methanol. Similarly, plasma was extracted with a 1:3 mixture of acetonitrile:methanol. Drug was assayed by LC MS/MS (PharmOptima Inc., Portage Mich.). First order exponential curves were fit to the data with Excel. AUC was determined with the trapezoidal method of integration.
For the pharmacokinetic study, the concentration of PK10453 (Structure 2) in lung when administered by inhalation was compared to the concentration achieved with IV administration. As described in Moren “Aerosols in medicine: principles, diagnosis, and therapy.” Amsterdam; New York: Elsevier, xx, 429 (1993) and Phalen et al., “Inhalation exposure methodology.” Environ Health Perspect 56:23-34 (1984)), it is possible to estimate the pharmacokinetic advantage of inhalation relative to intravenous administration, Rd, by comparing the AUC of a plot of the drug concentration as a function of time following respiratory and IV administration: […]
The pharmacokinetic data was modeled to a first order exponential curve, and the AUC calculated from the curves (see Table 2). […]

Series [2] is described as follows: Aerosol particle size of nebulized drug, Anderson cascade impactor. Format: physicochemical. Conditions: 20 mg/ml in 1M tosylic acid, PARI nebulizer. On the procedure: PK10453 (Structure 2) was dissolved at a concentration of 20 mg/ml in 1M tosylic acid. Nebulization was performed with a PARI Nebulizer with an air pressure of 12.5 psi. The aerosol droplets were neutralized by ammonia vapor that was passed into the aerosol air stream. The particles were then dried by flowing through an annular ring of silica bead cartridges prior to reaching the exposure chamber. The 6-port exposure chamber was a nose-only exposure system custom designed and built by Powerscope Inc. (Minneapolis, Minn.). The vacuum flow rate at each port was separately controlled by a flow meter. The aerosol particle size was measured at the exit port of the drying column with an Anderson (Mark II) cascade impactor. The mass median aerodynamic diameter (MMAD) was 2 μm and the associated geometric standard deviation (GSD) was 1.6.

In series [3] the test system is PDGFBB stimulated phosphorylation of ERK1 and ERK2. Nature of the series: PDGFBB stimulated phosphorylation of ERK1 and ERK2 in human fetal lung fibroblasts. It is filed as cell-based. The text has this: Data shown are mean±SEM. […] PK10453=structure 2; PK10571=structure 2a. Platelet derived growth factor receptor alpha=PDGFR-alpha=PDGFR-α=PDGF receptor alpha=PDGF alpha receptor. Platelet derived growth factor receptor beta=PDGFR-beta=PDGFRβ=PDGF receptor beta=PDGF beta receptor.

In series [4] the test system is rat monocrotaline plus pneumonectomy model. Nature of the series: Trichrome stain of lung sections, rat monocrotaline plus pneumonectomy model. Format: in vivo. The following applies: inhaled; compared to vehicle treated animal; FIG. 42. The text has this:
At the end of the study, the heart and lungs were removed from ventilated animals under general anesthesia. Heparinized saline was infused under pressure through the main pulmonary artery. The right upper lobe was immediately tied off and placed in liquid nitrogen for Western blot and NanoPro 100 assay analysis. The heart was removed, and the RV free wall, interventricular septum and LV free wall dissected and weighed. Buffered formalin (10%) was infused under pressure both through the pulmonary artery and the trachea. Morphometric analysis was performed on H&E stained formalin fixed tissue sectioned at 8 μm. The media area and lumen area of pulmonary arterioles were measured with Image J software by a technician blinded to treatment group. Measurements were made on 20 pulmonary arterioles per section. The ratio of the lumen area to the total media area was determined. This ratio normalizes the variation in total pulmonary arteriole area. In addition, occlusive analysis was performed in the monocrotaline plus pneumonectomy study (specifically efficacy study 5) according to the method of Homma et al., “Involvement of RhoA/Rho kinase signaling in protection against monocrotaline-induced pulmonary hypertension in pneumonectomized rats by dehydroepiandrosterone.” Am J Physiol Lung Cell Mol Physiol. Vol. 295:L71-8 (2008). […]

Series [5] relates to PDGFBB stimulated AKT phosphorylation. Nature of the series: In cell Western, PDGFBB stimulated AKT phosphorylation in human fetal lung fibroblasts. Format: cell-based. Conditions: for IC50: Fibroblast. On the procedure: HLFs were maintained in subculture at no more than 6 passages in DMEM with 5% FBS and 4 mM Glutamax at 37° C., 5% CO2. HLFs were plated and grown to 70-80% confluence in 96 well plates then serum-starved for 48 hours. […] Antibodies were detected using IRDye 680LT goat anti-mouse IgG and IRDye 800 W goat α-rabbit IgG conjugated antibodies. After washing, the signal was quantified using an Odyssey Infrared Imaging System (LI-COR). Phosphoprotein signal (800 nm) was normalized to total protein signal (700 nm) acquired from each well and experimental duplicates on same plate were averaged and reported.

A further series deals with rat MCT+PN model. In words: Telemetry of pulmonary artery pressure in rat MCT+PN model. Format: in vivo. Conditions: for PA systolic pressure: separate MCT+PN telemetry study. Here is the method:
Pneumonectomy and implantation of a TRM53P telemetry monitor in the pulmonary artery (Telemetry Research, New Zealand and ADInstruments, Colorado) was carried out in rats. Two weeks after MCT, PK10453 (Structure 2) was administered three times daily for 1 week. […] The two groups underwent 4 min exposures of either the vehicle control or PK10453 (Structure 2). Sampling of PA pressure was performed 5 min before each morning dose in ambulatory animals in room air (estimated atmospheric pressure 716 mm Hg based on elevation of animal facility). […] Telemetry data was obtained for 10 min daily before each morning dose for this protocol.

[6] abbreviates: 8 min inhalation three times a day, two weeks.

Several values for one entry are separate records, joined by “and”; a condition that tells them apart may be missing. Identical values can stand only once. Like-named read-outs stand apart in the source and are kept apart here.

Sequence of PDGFRbeta (P09619 600-962 limits assumed): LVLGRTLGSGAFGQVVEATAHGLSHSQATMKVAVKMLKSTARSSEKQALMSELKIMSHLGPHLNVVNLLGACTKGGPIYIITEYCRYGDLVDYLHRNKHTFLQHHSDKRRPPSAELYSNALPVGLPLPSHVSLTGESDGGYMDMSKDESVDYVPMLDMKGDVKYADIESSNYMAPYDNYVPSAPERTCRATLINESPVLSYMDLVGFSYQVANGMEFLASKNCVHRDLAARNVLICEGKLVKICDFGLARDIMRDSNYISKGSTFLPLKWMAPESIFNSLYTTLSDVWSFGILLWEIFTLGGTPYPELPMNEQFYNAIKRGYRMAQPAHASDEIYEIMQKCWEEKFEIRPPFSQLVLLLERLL
Description for rat MCT model: At the end of the study RVSP pressure was measured; lung and heart fixed in formalin. For measurement of RVSP animals were sedated with isoflurane, intubated via a tracheostomy, and ventilated with a TOPOVENT pressure regulated ventilator (peak inspiratory pressure 18 cm H20, PEEP 5 cm). After sternotomy, a Scisense high fidelity catheter inserted via the RV apex.
At the end of the study, the heart and lungs were removed from ventilated animals under general anesthesia. Heparinized saline was infused under pressure through the main pulmonary artery. […] The heart was removed, and the RV free wall, interventricular septum and LV free wall dissected and weighed. Buffered formalin (10%) was infused under pressure both through the pulmonary artery and the trachea. Morphometric analysis was performed on H&E stained formalin fixed tissue sectioned at 8 μm. The media area and lumen area of pulmonary arterioles were measured with Image J software by a technician blinded to treatment group. Measurements were made on 20 pulmonary arterioles per section. The ratio of the lumen area to the total media area was determined. This ratio normalizes the variation in total pulmonary arteriole area. […] Briefly, pre-capillary arterioles were assigned grade 0 for no evidence of neointimal lesions, grade 1 for less than 50% luminal occlusion, and grade 2 for greater than 50% occlusion.

As usually defined, the IC50 is the concentration that inhibits the measured activity by half. As for `COc1cc(-c2cncc(N[C@@H](C)c3cccc(NC(=O)c4cncc(C)c4)c3)n2)ccc1O` [PK10453, (S)—N-(3-(1-((6-(4-hydroxy-β-methoxyphenyl)pyrazin-2yl)amino)ethyl)phenyl)-5-methylnicotinamide], the “potency against PDGFR beta kinase domain relative to imatinib” value at PDGFRbeta is recorded as “more potent than imatinib”. For the same compound, the “Rd, pharmacokinetic advantage of inhalation relative to intravenous administration” value in series [1] was 44.6 fold and 45 fold and 44.58 fold. For the same compound, in series [2], the “mass median aerodynamic diameter (MMAD) of dried nebulized aerosol” value worked out at 2 μm. Moreover, the “decrease of PDGF BB stimulated ppERK1 and ppERK2 relative to imatinib” value in series [3] (1 uM and 10 uM) is listed as “more effective”. Besides, the “decrease of PDGFBB stimulated ppERK1 formation” value in series [3] (1 uM, PDGF BB 10 ng/ml) is on record as “effective”. Moreover, in series [3] (PDGFAA or PDGFBB stimulation (10 ng/ml), 1 uM and 10 uM), the “ratio diphosphorylated ERK2 to total ERK2 (ppERK2/ERK2)” value was “significantly decreased”. In series [3] (PDGFAA or PDGFBB stimulation, 1 μM and 10 μM), the “ratio diphosphorylated ERK1 to total ERK1 (ppERK1/ERK1)” value is reported as “significantly decreased”. Moreover, in series [4], the “collagen deposition in lung sections (trichrome stain)” value is given as “less collagen deposition”. Moreover, the “end diastolic volume, ejection fraction, cardiac output, stroke work, difference between groups” value in the series with rat MCT model was “no significant differences”. For the same compound, the Lumen/Media ratio with rat MCT model (8 min exposures) turned out to be 0.94±0.08. For the same compound, the End systolic volume in the series on rat MCT model (setting [6]) was determined as 99.5 µL. Moreover, in the series on rat MCT model (setting [6]), the “RV end systolic pressure” value is given as 36.3±2.6 mm Hg. Besides, the IC50 in series [5] (human fetal lung fibroblasts, 10 ng/ml PDGFBB, read-out: IC50 for PDGFBB stimulated AKT phosphorylation at Ser473) was found to be 130 nM; in series [5] (human fetal lung fibroblasts, 10 ng/ml PDGFBB, read-out: IC50 for PDGFBB stimulated AKT phosphorylation at Thr308), 430 nM; in series [5] (human fetal lung fibroblasts, legend of FIG. 2 PANEL C, read-out: IC50 for PDGFBB stimulation of pAKT(Ser473)) it was 130 nM; in series [5] (Homo sapiens, FIG. 26, each concentration in duplicate, read-out: IC50, PDGF BB stimulated pAKT in human lung fibroblasts) it was 150 nM. Moreover, the “IC50 for inhibiting PDGFBB stimulated AKT phosphorylation relative to imatinib” value in series [5] (fetal human lung fibroblasts, FIG. 18) is “lower IC50 concentration compared to imatinib”. Further, the “efficacy by inhalation in the MCT+PN model” value in the series with rat MCT+PN model (rat MCT+PN) is “effective in lowering pulmonary pressures”. In addition, the PA systolic pressure is on record as 47.2±3.0 mm Hg in the series on rat MCT+PN model (after five days of treatment) and 50.5±7 mm Hg in the series with rat MCT+PN model (treatment day 9).
